Test results published in patent US6784192B2, “Piperidine compound and pharmaceutical composition thereof” (Eisai Co., Ltd., priority 2000, dated 2004).

Experiments:
[1] = tested on: atrial fibrillation (AF) in anesthetized thoracotomy dog; test: Effect of termination and prevention of atrium fibrillation (AF) in anesthetized thoracotomy dog; format: in vivo; settings: samples with effect / samples tested
From the text: (1) An anesthetized thoracotomy dog was used for the present experiment. After opening brisket at a median line and cutting epicardium, bipolar electrodes for determination of a potential wave form were respectively stitched at the free walls of right and left atriums. Further, a wire electrode was inserted in the free wall of a right atrium to be fixed and used for electrical simulation. After cutting cervix at a median line, right and left vagal nerves were peeled. Wire electrodes for stimulating vagal nerves were inserted along the surface layers of the respective both sides to be fixed and used as stimulation for vagal nerves.
(2) Electrical stimulation was carried out under conditions: a stimulation duration of 0.1 mess; a x stimulation frequency of 20 Hz; and a stimulation intensity of 3 to 7 V. After 5 minutes of the start of the stimulation, high frequency stimulation (10 Hz, 1 sec) was applied to the right atrium, and the induction of atrial fibrillation (hereinafter, abbreviated as “AF”) was tried. The stimulation intensity of high frequency stimulation of the right atrium was carried out from 1.0 V, and when AF was not induced, induction was tried by increasing the stimulation intensity to 5.0 V. After AF was induced, observation for 30 minutes was carried out, it was confirmed that AF is kept (control experiment). Further, when AF induced was not kept for 30 minutes, the experiment was stopped.
(3) After confirming that AF was kept for 30 minutes or more in the control experiment, the stimulation of vagal nerve was intercepted, and the dog was rested for about one hour to be recovered. After that, similarly, AF was induced again. Further, the stimulation of vagal nerve at this time was carried out at the higher stimulation intensity by about 2 V than at the control experiment. After 5 minutes of the induction of AF, the administration of a tested substance was carried out. The tested substance was administered intravenously over 5 minutes. After completion of the administration, observation was carried out for 5 minutes, and when the termination of AF was not observed, the dose was increased and the observation was similarly carried out. When AF was stopped, the induction of AF was tried again just after termination. At this time, when AF which was continued for one minute or more was induced again, it was judged as no effect of prevention, and experiment was similarly carried out by increasing the dose.
In the Table, the number of the denominator indicates the number of the sample used for test, and the number of the numerator indicates the number of the sample in which the effect was confirmed.

[2] = tested on: atrial muscle of anesthetized thoracotomy dog; test: Effective refractory period (ERP) in anesthetized thoracotomy dog; format: in vivo; settings: for Measurement Value of ERP: mean
From the text: (1) An anesthetized thoracotomy dog was used for the present experiment. After opening brisket at a median line and cutting epicardium, bipolar electrodes for determination of a potential wave form were respectively stitched at the free walls of right and left atriums. Further, a wire electrode was inserted in the free wall of a right atrium to be fixed and used for electrical simulation.
(2) A program electrical stimulation equipment was connected with the electrode for electrical stimulation at the right atrium, the electrical stimulation was carried out at a stimulation periodical length of 500 mess, and a threshold for the electrical stimulation was measured. The electrical stimulation intensity for the experiments below was set to carry out stimulation at 3-fold of this threshold. However, when the threshold was 0.7 V or less, the electrical stimulation was carried out at 2.0 V. Effective refractory period (ERP) provided early premature stimulation (S2) after the basic stimulation (S1) of 10 times, and the longest linking period in which atrium potential was not generated by the premature stimulation was referred to as ERP, while shortening the linking period (S1-S2) by 5 mess. Similar experiments were also carried out for the respective basic stimulation length (BCL) of 400, 300, 250 and 200 mess (control experiment: 1 series). After carrying out 2 times or more of the control experiments and confirming that ERP was stable, the tested substance was subsequently administered, and similar measurement was carried out. After the tested substance was administered once intravenously for 5 minutes, its keeping dose was subsequently administered intravenously. After 10 minutes of the administration start of the keeping dose, ERP was measured in the respective stimulation frequency. After completion of the one series of measurements, the concentration of the tested substance was increased and the similar experiments were repeated. The ERP and conduction time in the atrium in the respective stimulation frequency were compared with various indices under control condition. The result is shown by mean.

CS(=O)(=O)c1ccsc1CCC1CCN(Cc2ccc[nH]c2=O)CC1 [Example 135, 1-[(2-Oxo-1,2-dihydro-3-pyridinyl)methyl]-4-[2-(3-methylsulfonyl-2-thienyl)ethyl]piperidine]
the termination effect ([1]; dose 0.3 mg/kg intravenously over 5 minutes): 1/3
the prevention effect ([1]; dose 0.3 mg/kg intravenously): 1/1
the termination effect ([1]; dose 1 mg/kg intravenously over 5 minutes): 2/2
the prevention effect ([1]; dose 1 mg/kg intravenously): 2/2
Measurement Value of ERP ([2]; dose 0.1 mg/kg intravenously, BCL 200 msec): 125.0 ms
Measurement Value of ERP ([2]; dose 0.1 mg/kg intravenously, BCL 250 msec): 138.3 ms
Measurement Value of ERP ([2]; dose 0.1 mg/kg intravenously, BCL 300 msec): 155.0 ms
Measurement Value of ERP ([2]; dose 0.1 mg/kg intravenously, BCL 400 msec): 170.0 ms
Measurement Value of ERP ([2]; dose 0.1 mg/kg intravenously, BCL 500 msec): 178.3 ms
Percent change in ERP versus pre-dose control ([2]; dose 0.1 mg/kg, BCL 200 msec): 7.1%
Percent change in ERP versus pre-dose control ([2]; dose 0.1 mg/kg, BCL 250 msec): 3.9%
Percent change in ERP versus pre-dose control ([2]; dose 0.1 mg/kg, BCL 300 msec): 5.7%
Percent change in ERP versus pre-dose control ([2]; dose 0.1 mg/kg, BCL 400 msec): 3.0%
Percent change in ERP versus pre-dose control ([2]; dose 0.1 mg/kg, BCL 500 msec): 3.1%
Measurement Value of ERP ([2]; dose 0.3 mg/kg intravenously, BCL 200 msec): 138.3 ms
Measurement Value of ERP ([2]; dose 0.3 mg/kg intravenously, BCL 250 msec): 150.0 ms
Measurement Value of ERP ([2]; dose 0.3 mg/kg intravenously, BCL 300 msec): 166.7 ms
Measurement Value of ERP ([2]; dose 0.3 mg/kg intravenously, BCL 400 msec): 181.7 ms
Measurement Value of ERP ([2]; dose 0.3 mg/kg intravenously, BCL 500 msec): 190.0 ms
Percent change in ERP versus pre-dose control ([2]; dose 0.3 mg/kg, BCL 200 msec): 18.6%
Percent change in ERP versus pre-dose control ([2]; dose 0.3 mg/kg, BCL 250 msec): 12.6%
Percent change in ERP versus pre-dose control ([2]; dose 0.3 mg/kg, BCL 300 msec): 13.7%
Percent change in ERP versus pre-dose control ([2]; dose 0.3 mg/kg, BCL 400 msec): 10.1%
Percent change in ERP versus pre-dose control ([2]; dose 0.3 mg/kg, BCL 500 msec): 9.8%
Measurement Value of ERP ([2]; dose 1 mg/kg intravenously, BCL 250 msec): 183.3 ms
Measurement Value of ERP ([2]; dose 1 mg/kg intravenously, BCL 300 msec): 195.0 ms
Measurement Value of ERP ([2]; dose 1 mg/kg intravenously, BCL 400 msec): 203.3 ms
Measurement Value of ERP ([2]; dose 1 mg/kg intravenously, BCL 500 msec): 208.3 ms
Percent change in ERP versus pre-dose control ([2]; dose 1 mg/kg, BCL 250 msec): 37.9%
Percent change in ERP versus pre-dose control ([2]; dose 1 mg/kg, BCL 300 msec): 33.2%
Percent change in ERP versus pre-dose control ([2]; dose 1 mg/kg, BCL 400 msec): 23.4%
Percent change in ERP versus pre-dose control ([2]; dose 1 mg/kg, BCL 500 msec): 20.6%
